# Experimental data as given in patent US7534871B2, “Preparation and use of carbohydrate-based bicyclic ring structures with antimicrobial and cytostatic activity” (Kemin Pharma B.V.B.A., priority 2004, dated 2009).
# Key:
# [1] = system: P. aeruginosa ATCC27853 LMG16217; experiment: Anti-bacterial activity, Bioscreen C growth curve: P. aeruginosa; assay type: cell-based, Pseudomonas aeruginosa; settings: Pseudomonas aeruginosa; 25 PPM; 35° C., 16 hours; negative control = 100; read-out: % of growth at 25 PPM compared to the negative control, P. aeruginosa ATCC27853 LMG16217
# Procedure: (§1) For the determination of the anti-bacterial and anti-fungal activity the Bioscreen C Analyser Labsystems, Finland, was used. This is an automated reader-incubator. It measures growth continuously by vertical photometry (optical density), processes the data and provides a print out of the results. The area under the growth curve is automatically determined via the Biolink software.
# (§2) The inoculum size of the bacteria is standardized to approximately 5×10^5 CFU/ml.
# (§3) For bacteria, the 100-honey-well plates containing test chemical, Mueller-Hinton broth and inoculum (=sample) are incubated at 35° C. for 16 hours. Also wells without inoculum are incubated (=blanco). Yeasts are incubated 35° C. for 24 hours in RPMI 1640+MOPS buffer at 165 mM. Moulds also in RPMI 1640+MOPS buffer at 165 mM are incubated 25° C. for 5 days. All micro-organisms are screened against a known concentration of the reference antibiotics or antimycotics such as vancomycin, penicillin G, gentamicin or amphotericin B. The growth curve and the area under the growth curve can be determined using the Biolink software; this is illustrated in FIG. 1.
# (§4) The area of the blanco is subtracted from the area of the sample, this number (delta) gives us an indication of the biological activity of the molecules tested and can be expressed as a % of growth at a specific dose compared to a negative control that has a value of 100, illustrated in FIG. 2. Screening of each dose of a specific compound is repeated 5 times. The dose used for all new molecules in all tests is 25 PPM or 25 μg/ml.
# (§5) In Table 4 the results of the anti-bacterial activity is given for the new molecules. The micro-organisms used are Staphylococcus aureus, MRSA, VRE, Enterococcus faecalis, Salmonella typhimurium and Pseudomonas aeruginosa.
# [2] = system: Microsporum gypseum IHEM 3999 - ATCC 14683; experiment: Anti-fungal activity, Bioscreen C growth curve: Microsporum gypseum (mold); assay type: cell-based; settings: for activity at 25 ppm: Nannizzia gypsea, ATCC14683, 120 h, 25° C., 5 days, negative control = 100, read-out: % of growth at a dose of 25 PPM compared to the negative control, Microsporum gypseum IHEM 3999 - ATCC 14683
# Procedure: as §1
# The inoculum size of the mould is standardized to 0.4-5.0×10^4 CFU/ml.
# as §3, §4
# (§6) In Table 5 the anti-fungal activity is given for the new molecules. The micro-organisms used were Candida albicans (a typical yeast) and Microsporum gypseum (a typical mold).
# as §1, with “Also for” for “For”, “the” for “the anti-bacterial and”, “Labsystems Oy, Finland” for “Labsystems, Finland,”, “used.” for “used. This is an automated reader-incubator.”
# (§7) The inoculum size of the yeast is standardized to 0.5-2.5×10^3 CFU/ml. The inoculum size of the mould is standardized to 0.4-5.0×10^4 CFU/ml. Yeasts are incubated 35° C. for 24 hours in RPMI 1640+MOPS buffer at 165 mM. Moulds also in RPMI 1640+MOPS buffer at 165 mM are incubated 25° C. for 5 days.
# (§8) As a control, all micro-organisms are screened against some reference antibiotics with known MIC. Screening of each dose of a specific compound is repeated 5 times.
# MRSA ATCC33591 = experiment: Anti-bacterial activity, Bioscreen C growth curve: MRSA; assay type: cell-based, methicillin-resistant Staphylococcus aureus (MRSA); settings: for activity at 25 ppm: Staphylococcus aureus, ATCC 33591 / LMG10147 / MRSA, 35° C., 16 hours, negative control = 100, read-out: % of growth at 25 PPM compared to the negative control, MRSA ATCC33591 LMG10147
# Procedure: as §1, §2, §3, §4, §5
# VRE ATCC700221 = experiment: Anti-bacterial activity, Bioscreen C growth curve: VRE; assay type: cell-based, vancomycin-resistant Enterococcus (VRE); settings: Enterococcus, 35° C., 16 hours, negative control = 100, read-out: % of growth at 25 PPM compared to the negative control, VRE ATCC700221
# Procedure: as §1, §2, §3, §4, §5
# [3] = system: E. faecalis ATTC29212 LMG 8222; experiment: Anti-bacterial activity, Bioscreen C growth curve: E. faecalis; assay type: cell-based; settings: Enterococcus faecalis, LMG8222, 35° C., 16 hours, negative control = 100, read-out: % of growth at 25 PPM compared to the negative control, E. faecalis ATTC29212 LMG 8222
# Procedure: as §1, §2, §3, §4, §5
# [4] = system: S. typhimurium ATTC700408; experiment: Anti-bacterial activity, Bioscreen C growth curve: S. typhimurium; assay type: cell-based; settings: Salmonella enterica, LMG16217 / TYPHIMURIUM, 35° C., 16 hours, negative control = 100, read-out: % of growth at 25 PPM compared to the negative control, S. typhimurium ATTC700408 LMG16217
# Procedure: as §1, §2, §3, §4, §5
# [5] = system: S. aureus ATTC29213 LMG10147; experiment: Anti-bacterial activity, Bioscreen C growth curve: S. aureus; assay type: cell-based; settings: Staphylococcus aureus, 35° C., 16 hours, negative control = 100, read-out: % of growth at 25 PPM compared to the negative control, S. aureus ATTC29213 LMG10147
# Procedure: as §1, §2, §3, §4, §5
# [6] = system: Candida albicans IHEM 10284 - ATCC 24433; experiment: Anti-fungal activity, Bioscreen C growth curve: Candida albicans (yeast); assay type: cell-based; settings: Candida albicans, ATCC24433; 25 PPM; 35° C., 24 hours; negative control = 100; read-out: % of growth at a dose of 25 PPM compared to the negative control, Candida albicans IHEM 10284 - ATCC 24433
# Procedure: as §1
# The inoculum size of the yeast is standardized to 0.5-2.5×10^3 CFU/ml.
# as §3, §4, §6
# as §1, with “Also for” for “For”, “the” for “the anti-bacterial and”, “Labsystems Oy, Finland” for “Labsystems, Finland,”, “used.” for “used. This is an automated reader-incubator.”
# as §7, §8
SMILES,activity at 25 ppm [1],activity at 25 ppm [2],activity at 25 ppm (MRSA ATCC33591),activity at 25 ppm (VRE ATCC700221),activity at 25 ppm [3],activity at 25 ppm [4],activity at 25 ppm [5],activity at 25 ppm [6],"anti-mold activity, in words ([2]; conclusion in text on Table 5)","anti-bacterial activity against gram-positive bacteria including MRSA, in words (MRSA ATCC33591; conclusion on Table 4)"
CO[C@H]1[C@@H]2OC(=O)CC/C=C/CCC(=O)OC[C@H]2OC[C@@H]1OC [KPE00001006],87.3%,62%,99.7%,96.5%,92.5%,94.6%,94.7%,93.1%,,
CO[C@@H]1[C@@H](OC)[C@H](Sc2ccccc2)O[C@@H]2COC(=O)CCC(O)C(O)CCC(=O)O[C@@H]12 (stereo partly shown) [KPE00001007],86.2%,76%,97.8%,93%,97%,89.7%,94.9%,94.7%,,
CO[C@@H]1[C@@H](OC)[C@H](Sc2ccccc2)O[C@@H]2COCCC/C=C/CCCO[C@@H]12 [KPE00001009.1],91.6%,60%,107%,82%,87.5%,90.1%,98.3%,93.9%,,
CO[C@@H]1[C@@H](OC)[C@H](Sc2ccccc2)O[C@@H]2COCCC/C=C\CCCO[C@@H]12 [KPE00001009.2],67.6%,54%,111%,86.4%,85.5%,90.1%,100%,103%,best anti-mold activity,
CO[C@H]1[C@@H]2OC(=O)CCCCCCC(=O)OC[C@H]2OC[C@@H]1OC [KPE00001010],80.7%,60%,110%,93%,90.6%,88.8%,102%,95.5%,,
CO[C@@H]1[C@@H](OC)[C@H](O)[C@@H](CO)O[C@H]1Sc1ccccc1 [KPE00001011],85%,76.4%,90.5%,79%,89%,92.1%,89%,79.3%,,
CO[C@@H]1[C@@H](OC)[C@H](O)[C@@H](CO)O[C@H]1Cc1ccccc1 [KPE00001020],94.4%,78%,99%,99%,98.4%,92.3%,97.9%,91%,,
O=C1CC/C=C/CCC(=O)O[C@H]2[C@H](OCc3ccccc3)[C@@H](OCc3ccccc3)[C@H](Sc3ccccc3)O[C@@H]2CO1 [KPE00001037],89.3%,73%,107%,90%,97.6%,91%,98.5%,87.4%,,
CO[C@@H]1[C@@H](OC)[C@H](c2ccccc2)O[C@@H]2COC(=O)CCC3OC3CCC(=O)O[C@@H]12 (stereo partly shown) [KPE00001039],91.3%,77%,102%,93%,94.1%,97%,97.7%,96.4%,,
CO[C@@H]1[C@@H](OC)[C@H](c2ccccc2)O[C@@H]2COC(=O)CCC=CCCC(=O)O[C@@H]12 [KPE00001040],78.5%,64%,99.7%,83.4%,85.1%,89%,94%,101%,,
CO[C@@H]1[C@@H](OC)[C@H](Sc2ccccc2)O[C@@H]2CNC(=O)CCC=CCCC(=O)O[C@@H]12 [KPE00001041],83.3%,81%,75.6%,93%,68.2%,96.6%,56.7%,78.1%,,good anti-bacterial activity
CO[C@@H]1[C@@H](OC)[C@H](Sc2ccccc2)O[C@@H]2CNC(=O)CC/C=C/CCCO[C@@H]12 [KPE00001042],94.7%,79%,104%,96%,93.3%,98%,97%,90.3%,,
CO[C@H]1[C@H](OC)[C@H](OC)COC/C=C/COC[C@H]2OC[C@H](OC)[C@@H](OC)[C@@H]2OC(=O)NC[C@@H]1OC [KPE00001056],106%,77%,113%,91%,111%,93.7%,105%,101%,,
